“And” between values parts separate entries of the source, which are not always exact repeats. Equal values may be shown once. Each block holds one compound with its values, some of them ahead of it.
Tests used:
[1] = tested on: sulfonylurea receptor in trabecular meshwork cells; experiment: 3H-glibenclamide binding and displacement, bovine trabecular meshwork cells
Method: FIG. 1 depicts, in accordance with embodiments herein, binding of ^3H-glibenclamide to bovine trabecular meshwork cells (2.5×10^5 per 0.5 ml of reaction mixture) at various concentrations of ligand. Red: non-specific binding; green: specific binding. Shown is mean±SD.
(§1) FIG. 2 depicts, in accordance with embodiments herein, displacement of ^3H-glibenclamide bound to trabecular meshwork cells (green) and RIN-m5F cells (red) by tolbutamide.
Non-specific binding was determined as the residual binding in the presence of 20 μM non-labeled glibenclamide. After 2 hrs incubation, ^3H-bound glibenclamide was separated from free ^3H-glibenclamide on Whatman GF/F filters soaked in incubation buffer. Specific binding as calculated as the difference between binding in the absence and presence of non-labeled […] glibenclamide (FIG. 1).

glaucoma patients = experiment: Extended twice-daily 0.4% tolbutamide treatment, IOP of glaucoma patients; assay type: in vivo, human
Method: FIG. 5 depicts, in accordance with embodiments herein, long-term effect of 0.4% tolbutamide treatment on IOP of a human subject. […] The bottles were color-coded and the patient was not aware of which bottle contained the drug and which contained the vehicle. The patient and the technician measuring the patient's IOP was not aware of which bottle contained the drug and which contained the vehicle
(§2) On days 1 through 5, IOP was measured at 8:00 A.M., 1 drop of 0.4% Tolbutamide suspended in buffered PBS (pH 6.7) was instilled to the right eye and IOP measured at the indicated times. A second drop was administered at 10:00 PM. All measurements and drug administrations were done in the hospital. The bottles were color-coded and the patient was not aware of which bottle contained the drug and which contained the vehicle. […]
b. Effect of 0.4% tolbutamide on human subjects for an extended time. To determine whether longer-term treatment with tolbutamide lowered TOP without any significant side effects, […] patient was treated with one drop of 0.4% tolbutamide twice daily (FIGS. 5-7) as shown in the figures. Vials containing drug and vehicle were color-coded by the manufacturing facility; the patient, the nurse and the investigator were not aware which vial contained the drug and which vial contained the vehicle.
as §2, with “hospital, since” for “hospital. The bottles were color-coded and”, “admitted for an unrelated condition.” for “not aware of which bottle contained the drug and which contained the vehicle.”

[2] = tested on: normal cynomologus monkeys; experiment: Effect of tolbutamide on IOP of normal cynomologus monkeys; assay type: in vivo; details: for IOP 1 hour post-treatment OD(treated): ketamine anesthesia
Method: Effect of Tolbutamide on TOP of Normal Cynomologus Monkeys: Formulations of the KA channel inhibitor tolbutamidewere tested as a suspension and as a solution for its ability to lower intraocular pressure in normal cynomologus monkeys. For the suspension, 0.4% tolbutamide was prepared in NaCl/borate buffer (0.8 mg NaCl, 1.0 mg boric acid, pH 7.2, water to 1 ml; for the solution, 0.4% tolbutamide was solubilized in 0.25 M NaOH and added to 0.4% hypromellose (HPMC) and the pH adjusted to 6.7. Tonicity was adjusted to 300 mOSm with NaCl and preserved with 0.001% thimerosal. The suspension and solution were tested as follows: Monkeys were anesthetized with ketamine hydrochloride and the baseline IOP determined. One drop of drug was administered to the right eye and the IOP determined 1 hour later, while the animals were still under anesthesia; the left eye served as a control. Two animals for each treatment were used. The decrease in IOP in the untreated eye is the result of anesthesia.

[3] = tested on: patients with elevated IOP; experiment: Effect of one drop of 0.4% tolbutamide on IOP in human subjects; assay type: in vivo; details: for effect on IOP: glaucomatous patients and patients with elevated IOP after cataract surgery (lens extraction)
Method: a. Effect of 1 drop of 0.4% tolbutamide. Three patients with elevated TOP, due to exfoliative glaucoma, to POAG and to the increase in TOP that occurs in some patients following lens extraction, were treated with one drop of 0.4% tolbutamide solution. TOP was measured at “0” time and at one hour intervals for 5 hours (when possible) by a nurse while the patient was in the hospital.

[4] = target: T1, sulfonylurea receptor of RIN-m5F cells (Rattus norvegicus, UniProt Q09429); experiment: 3H-glibenclamide displacement, RIN-m5F cells; assay type: binding; details: compared with bovine TM cells
T1 construct: displacement of ^3H-glibenclamide by tolbutamide in bovine trabecular meshwork cells and RIN-m5F cells; host or cells: RIN-m5F rat insulinoma cells
T1 sequence (Q09429 whole entry): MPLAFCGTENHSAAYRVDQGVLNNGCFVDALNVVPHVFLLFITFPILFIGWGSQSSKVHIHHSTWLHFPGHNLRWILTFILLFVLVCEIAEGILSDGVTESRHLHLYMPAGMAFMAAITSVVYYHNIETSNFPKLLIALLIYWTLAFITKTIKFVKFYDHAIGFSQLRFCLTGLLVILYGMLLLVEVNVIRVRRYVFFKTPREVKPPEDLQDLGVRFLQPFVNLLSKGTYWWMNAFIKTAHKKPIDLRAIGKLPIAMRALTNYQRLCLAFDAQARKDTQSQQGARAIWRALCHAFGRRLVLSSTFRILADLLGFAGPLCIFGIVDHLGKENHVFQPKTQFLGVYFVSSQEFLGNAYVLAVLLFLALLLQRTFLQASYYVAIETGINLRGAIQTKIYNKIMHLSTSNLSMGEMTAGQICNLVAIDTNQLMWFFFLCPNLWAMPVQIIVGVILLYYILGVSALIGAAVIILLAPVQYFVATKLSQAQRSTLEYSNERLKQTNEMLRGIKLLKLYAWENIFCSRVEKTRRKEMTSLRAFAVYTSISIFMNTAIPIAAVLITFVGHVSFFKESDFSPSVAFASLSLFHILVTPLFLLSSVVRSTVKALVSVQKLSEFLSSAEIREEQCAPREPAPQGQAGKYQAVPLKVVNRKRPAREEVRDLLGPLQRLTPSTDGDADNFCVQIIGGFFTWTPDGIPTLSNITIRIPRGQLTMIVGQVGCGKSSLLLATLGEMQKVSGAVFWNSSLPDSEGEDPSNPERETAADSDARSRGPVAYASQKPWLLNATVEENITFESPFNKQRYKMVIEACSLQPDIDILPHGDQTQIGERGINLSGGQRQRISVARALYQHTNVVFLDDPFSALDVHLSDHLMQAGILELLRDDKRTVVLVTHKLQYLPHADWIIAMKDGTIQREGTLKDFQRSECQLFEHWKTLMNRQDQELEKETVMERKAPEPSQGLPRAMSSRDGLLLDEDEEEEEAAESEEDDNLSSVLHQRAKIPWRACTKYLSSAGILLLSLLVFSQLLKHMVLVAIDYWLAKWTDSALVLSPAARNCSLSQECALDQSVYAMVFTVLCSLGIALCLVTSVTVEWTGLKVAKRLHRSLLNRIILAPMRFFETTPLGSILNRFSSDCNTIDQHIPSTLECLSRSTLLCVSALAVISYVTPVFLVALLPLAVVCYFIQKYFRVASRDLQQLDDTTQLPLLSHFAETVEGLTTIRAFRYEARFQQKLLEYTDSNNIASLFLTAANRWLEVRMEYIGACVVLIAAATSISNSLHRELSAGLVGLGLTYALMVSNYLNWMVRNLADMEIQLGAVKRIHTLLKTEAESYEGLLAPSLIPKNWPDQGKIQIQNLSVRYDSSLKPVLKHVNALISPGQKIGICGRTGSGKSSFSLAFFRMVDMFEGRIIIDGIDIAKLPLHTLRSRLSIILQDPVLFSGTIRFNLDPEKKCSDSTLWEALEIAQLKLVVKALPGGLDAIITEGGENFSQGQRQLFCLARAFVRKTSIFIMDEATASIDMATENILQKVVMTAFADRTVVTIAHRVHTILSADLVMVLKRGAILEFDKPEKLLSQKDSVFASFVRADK
T1 sequence (P70673 whole entry partner): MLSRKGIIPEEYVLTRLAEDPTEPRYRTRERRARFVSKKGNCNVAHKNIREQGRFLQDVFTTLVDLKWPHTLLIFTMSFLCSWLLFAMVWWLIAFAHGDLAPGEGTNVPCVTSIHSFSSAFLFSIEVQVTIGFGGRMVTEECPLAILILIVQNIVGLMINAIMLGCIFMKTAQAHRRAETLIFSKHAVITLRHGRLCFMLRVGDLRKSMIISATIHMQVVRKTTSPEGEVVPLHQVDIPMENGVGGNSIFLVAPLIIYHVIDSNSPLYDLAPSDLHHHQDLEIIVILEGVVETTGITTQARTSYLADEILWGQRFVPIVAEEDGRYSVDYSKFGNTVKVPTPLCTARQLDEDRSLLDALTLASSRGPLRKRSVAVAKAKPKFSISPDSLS
Source text: as §1

patients = experiment: Adverse ocular effects of tolbutamide eye drops
Source text: Specifically, patients were monitored for discomfort, ocular pain, tearing, photophobia, erythema, swelling, discharge and scaling, palpebral conjunctival inflammation, bulbar conjunctival inflammation; limbal inflammation, corneal epithelial changes and focal stromal infiltrates. Symptoms were classified as 0=normal; 1=mild; 2=moderate; and 3=severe.

rabbits = experiment: Effect of KATP channel blockers and openers on intraocular pressure in rabbits; assay type: in vivo; details: 800 μg of blockers, within 1 hour
Source text: Tolbutamide, a well-known and world-wide clinically approved drug to treat Type II diabetes, was used as the prototype blocker of the KATP channel. […] Tolbutamide solution decreased IOP not only in glaucomatous patients, but also in patients with elevated IOP after cataract surgery.

[5] = tested on: ocular hypertensive patient; experiment: Fluorophotometry of aqueous humor inflow and outflow facility; assay type: in vivo, human
Method: Thus, they investigated whether one drop of […] tolbutamide would affect aqueous dynamics using fluorophotometry to measure aqueous production and outflow.
Fluorophotometry. To define the mechanism of action of tolbutamide, measurements of aqueous dynamics were done on patient 2 (See FIG. 6). For this study TOP and rate of aqueous formation were measured at 9:00 A.M. The patient was asked to apply one drop of drug to the right eye at 9:15 A.M. and one at 10:00 P.M. for 3 days. On the morning of the fourth day TOP and rate of aqueous formation were again measured.
Facility of Outflow (C) was calculated after Goldman:
[formula] where IOPt is the intraocular pressure in mmHg at the time the rate of inflow is measured. Episcleral pressure for this patient was estimated at 9 mmHg.

[6] = tested on: human trabecular meshwork cell; experiment: 86Rb efflux from human trabecular meshwork cells; assay type: cell-based
Source text: FIG. 3 depicts, in accordance with embodiments herein, effect of glybenclamide on the efflux of ^86Rb from human trabecular meshwork cell.
FIG. 4 depicts, in accordance with embodiments herein, effect of chlorpromazine on the efflux of ^86Rb from human trabecular meshwork cell.

[7] = Patient 2, 0.4% in PBS pH 6.7 twice daily, Day 1 6:30 PM
[8] = Patient 2, 0.4% in PBS pH 6.7 twice daily, Day 2 4:00 PM
[9] = Patient 2, 0.4% in PBS pH 6.7 twice daily, Day 2 8:00 AM
[10] = Patient 2, 0.4% in PBS pH 6.7 twice daily, Day 2 8:00 PM
[11] = Patient 2, 0.4% in PBS pH 6.7 twice daily, Day 3 4:00 PM
[12] = Patient 2, 0.4% in PBS pH 6.7 twice daily, Day 3 8:00 AM
[13] = Patient 2, 0.4% in PBS pH 6.7 twice daily, Day 3 8:00 PM
[14] = Patient 2, 0.4% in PBS pH 6.7 twice daily, Day 4 4:00 PM
[15] = Patient 2, 0.4% in PBS pH 6.7 twice daily, Day 4 8:00 AM
[16] = Patient 2, 0.4% in PBS pH 6.7 twice daily, Day 4 8:00 PM
[17] = Patient 2, 0.4% in PBS pH 6.7 twice daily, Day 5 2:00 PM
[18] = Patient 2, 0.4% in PBS pH 6.7 twice daily, Day 5 8:00 AM
[19] = after 3 days, one drop of 0.5% solution to the eye twice daily

kinetics of displacement of 3H-glibenclamide by tolbutamide [4]: same kinetics
SMILES: CCCCNC(=O)NS(=O)(=O)c1ccc(C)cc1 [Tolbutamide, tolbutamide]
kinetics of displacement of 3H-glibenclamide by tolbutamide ([1]; bovine TM cells, compared with RIN-m5F cells): same kinetics
long-term effect on IOP (glaucoma patients; Patient 1 (high IOP, no visual field loss), 0.4% suspended in PBS pH 6.7, right eye twice daily, days 1-6, first day IOP remained high): decreased significantly during the next 5 days
IOP OD (treated) (glaucoma patients; Patient 2 (refractory to Timolol), 0.4% in PBS pH 6.7 twice daily, Day 1 6:00 PM, Day 1 4:00 PM value 31): 21 mm Hg
IOP OD (treated) % Change (glaucoma patients; Patient 2, 0.4% in PBS pH 6.7 twice daily, Day 1 6:00 PM): −32%
IOP OD (treated) (glaucoma patients; [7]): 18 mm Hg
IOP OD (treated) % Change (glaucoma patients; [7]): −42%
IOP OD (treated) (glaucoma patients; [8]): 27 mm Hg
IOP OD (treated) % Change (glaucoma patients; [8]): −13%
IOP OD (treated) (glaucoma patients; [9]): 16 mm Hg
IOP OD (treated) % Change (glaucoma patients; [9]): −48%
IOP OD (treated) (glaucoma patients; [10]): 28 mm Hg
IOP OD (treated) % Change (glaucoma patients; [10]): −10%
IOP OD (treated) (glaucoma patients; [11]): 22 mm Hg
IOP OD (treated) % Change (glaucoma patients; [11]): −29%
IOP OD (treated) (glaucoma patients; [12]): 20 mm Hg
IOP OD (treated) % Change (glaucoma patients; [12]): −35%
IOP OD (treated) (glaucoma patients; [13]): 21 mm Hg
IOP OD (treated) % Change (glaucoma patients; [13]): −32%
IOP OD (treated) (glaucoma patients; [14]): 22 mm Hg
IOP OD (treated) % Change (glaucoma patients; [14]): −29%
IOP OD (treated) (glaucoma patients; [15]): 18 mm Hg
IOP OD (treated) % Change (glaucoma patients; [15]): −42%
IOP OD (treated) (glaucoma patients; [16]): 24 mm Hg
IOP OD (treated) % Change (glaucoma patients; [16]): −23%
IOP OD (treated) (glaucoma patients; [17]): 23 mm Hg
IOP OD (treated) % Change (glaucoma patients; [17]): −26%
IOP OD (treated) (glaucoma patients; [18]): 17 mm Hg
IOP OD (treated) % Change (glaucoma patients; [18]): −45%
effect on IOP (glaucoma patients; glaucoma patients, 1 drop (250 μg) twice daily, 6 days of the study): decreased IOP
IOP 1 hour post-treatment OD(treated) ([2]; 0.4% solution in 0.4% HPMC pH 6.7, one drop right eye): 22 mmHg and 17 mmHg
IOP 1 hour post-treatment OD(treated) ([2]; 0.4% suspension in NaCl/borate buffer, one drop right eye): 15 mmHg and 18 mmHg
effect on IOP ([2]; cynomolgous monkeys, 500 μg, short-term 1-hour studies): decreased TOP
IOP spike that occurs following cataract surgery ([3]; 0.4%): prevents the IOP spike
lowering of intraocular pressure ([3]; 0.4%, primary open angle glaucoma and exfoliative glaucoma patients): 25-50%
IOP ([3]; Patient 1 Exfoliative Glaucoma of OD, OD, 2 hrs after one drop 0.4% solution, pre-treatment 48): 44 mm of Hg
IOP ([3]; Patient 1 Exfoliative Glaucoma of OD, OD, 3 hrs after one drop 0.4% solution, pre-treatment 48): 32 mm of Hg
IOP ([3]; Patient 1 Exfoliative Glaucoma of OD, OD, 4 hrs after one drop 0.4% solution, pre-treatment 48): 30 mm of Hg
IOP ([3]; Patient 1 Exfoliative Glaucoma of OD, OD, 5 hrs after one drop 0.4% solution, pre-treatment 48): 30 mm of Hg
IOP ([3]; Patient 1 Exfoliative Glaucoma of OD, OS, 2 hrs, pre-treatment 20): 18 mm of Hg
IOP ([3]; Patient 1 Exfoliative Glaucoma of OD, OS, 3 hrs, pre-treatment 20): 14 mm of Hg
IOP ([3]; Patient 1 Exfoliative Glaucoma of OD, OS, 4 hrs, pre-treatment 20): 14 mm of Hg
IOP ([3]; Patient 1 Exfoliative Glaucoma of OD, OS, 5 hrs, pre-treatment 20): 14 mm of Hg
IOP ([3]; Patient 2 Primary Open Angle Glaucoma, OD, 1 hr after one drop 0.4% solution, pre-treatment 34): 30 mm of Hg
IOP ([3]; Patient 2 Primary Open Angle Glaucoma, OD, 3 hrs, pre-treatment 34): 26 mm of Hg
IOP ([3]; Patient 2 Primary Open Angle Glaucoma, OD, 4 hrs, pre-treatment 34): 22 mm of Hg
IOP ([3]; Patient 2 Primary Open Angle Glaucoma, OD, 5 hrs, pre-treatment 34): 22 mm of Hg
IOP ([3]; Patient 2 Primary Open Angle Glaucoma, OS, 1 hr, pre-treatment 32): 27 mm of Hg
IOP ([3]; Patient 2 Primary Open Angle Glaucoma, OS, 3 hrs, pre-treatment 32): 22 mm of Hg
IOP ([3]; Patient 2 Primary Open Angle Glaucoma, OS, 4 hrs, pre-treatment 32): 20 mm of Hg
IOP ([3]; Patient 2 Primary Open Angle Glaucoma, OS, 5 hrs, pre-treatment 32): 20 mm of Hg
IOP ([3]; Patient 3 IOP Spike after Lens Extraction, OD, 2 hrs after one drop 0.4% solution, pre-treatment 30): 20 mm of Hg
effect on IOP [3]: decreased IOP
effect on IOP ([3]; listed as tolbutamide): decrease TOP significantly
severe symptoms of ocular toxicity (patients; all patients, any time during the study): free of severe symptoms
symptoms of ocular toxicity, classification (patients; drops to the eye, all cases): 0-1
effect on intraocular pressure (rabbits): decreased IOP
increase of aqueous production ([5]; 0.4%): 150%
increase of outflow via the trabecular meshwork-Schlemm's canal complex ([5]; 0.4%): 350%
net outflow increase ([5]; 0.4%): 200%
increase of aqueous formation [5, 19]: approximately 150%
increase of outflow via the trabecular meshwork/Schlemm's canal [5, 19]: 350%
Inflow OD Post-treatment ([5]; patient 2, one drop right eye twice daily for 3 days, morning of fourth day, Pre-Treatment 1.9): 3.0 µL/min
IOP OD Post-treatment ([5]; patient 2, one drop right eye twice daily for 3 days, morning of fourth day, Pre-Treatment 22): 15 mmHg
Outflow Facility OD Post-treatment ([5]; patient 2, one drop right eye twice daily for 3 days, calculated after Goldman, episcleral pressure 9 mmHg, Pre-Treatment 0.146): 0.50 μl/min/mmHg

SMILES: CN(C)CCCN1c2ccccc2Sc2ccc(Cl)cc21 [Chlorpromazine, chlorpromazine]
potassium efflux from trabecular meshwork cells as indicated by 86Rubidium efflux [6]: inhibit potassium efflux
inhibition at 1 µM ([6]; Homo sapiens, at 1 μM, dose dependent): 20%

SMILES: CC1=NS(=O)(=O)c2cc(Cl)ccc2N1 [diazoxide]
effect on intraocular pressure (rabbits): increased IOP significantly

SMILES: COc1ccc(Cl)cc1C(=O)NCCc1ccc(S(=O)(=O)NC(=O)NC2CCCCC2)cc1 [Glybenclamide, glibenclamide]
binding of 3H-glibenclamide to trabecular meshwork cells ([1]; on ice, 2 hrs incubation): have a receptor for glybenclamide
effect on intraocular pressure (rabbits): decreased IOP
potassium efflux from trabecular meshwork cells as indicated by 86Rubidium efflux [6]: inhibit potassium efflux
inhibition at 0.01 µM ([6]; Homo sapiens, at 10 nM, dose dependent): 50%

SMILES: Cc1ccc(S(=O)(=O)NC(=O)NN2CCCCCC2)cc1 [tolazamide]
effect on intraocular pressure (rabbits): decreased IOP

SMILES: CCCNC(=O)NS(=O)(=O)c1ccc(Cl)cc1 [chlorpropanamide]
effect on intraocular pressure (rabbits): decreased IOP

Source: patent publication US11752117B2, “Methods and compositions for diagnosing and treating glaucoma” (priority 2017, dated 2023)
